Results on 7 molecules are retold here after BindingDB's records for doi:10.1016/j.bmcl.2003.10.023 (Boehringer Ingelheim (Canada), 2003).

SMILES strings stand for the structures. Bounds are passed on as bounds.

This assay is described as follows: Inhibitory activity against calf thymus RNA polymerase.

A word on the IC50: it is the point on the concentration scale where inhibition reaches its midpoint. A higher IC50 goes with lower potency. As to `O=C(O)c1ccc2c(c1)nc(-c1ccco1)n2C1CCCCC1` [1-Cyclohexyl-2-furan-2-yl-1H-benzoimidazole-5-carboxylic acid], the IC50 was more than 500 µM.

As for `O=C(O)c1ccc2c(c1)nc(-c1nccs1)n2C1CCCCC1` [1-Cyclohexyl-2-thiazol-2-yl-1H-benzoimidazole-5-carboxylic acid], the IC50 is more than 500 µM.

Consider `O=C(O)c1ccc2c(c1)nc(-c1ccsc1)n2C1CCCCC1` [1-Cyclohexyl-2-thiophen-3-yl-1H-benzoimidazole-5-carboxylic acid], for which the IC50 was more than 500 µM.

Regarding `O=C(O)c1ccc2c(c1)nc(-c1ccc[nH]1)n2C1CCCCC1` [1-Cyclohexyl-2-(1H-pyrrol-2-yl)-1H-benzoimidazole-5-carboxylic acid], the IC50 was more than 500 µM.

`O=C(O)c1ccc2c(c1)nc(-c1ncc[nH]1)n2C1CCCCC1` [1-Cyclohexyl-2-(1H-imidazol-2-yl)-1H-benzoimidazole-5-carboxylic acid] displayed a half-inhibitory concentration (IC50) of more than 500 µM.

As to `O=C(O)c1ccc2c(c1)nc(-c1ccccc1)n2C1CCCCC1` [1-cyclohexyl-2-phenyl-1H-benzo[d]imidazole-5-carboxylic acid], the IC50 is more than 500 µM.

In turn, `O=C(O)c1ccc2c(c1)nc(-c1cccs1)n2C1CCCCC1` [1-Cyclohexyl-2-thiophen-2-yl-1H-benzoimidazole-5-carboxylic acid] yielded an IC50 of more than 500 µM.
